Experiments:
Assay in all cases: Spore germination test
Type in all cases: cell-based
Uromyces phaseoli = settings: UP, 48 hours
Procedure, shortened: (§1)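 Compound in acetone was mixed into water agar at final 40, 10, 2.5 and 1 ppm and poured into quadrant dishes. Quadrants received spore suspension, while Erysiphe polygoni and Uromyces phaseoli spores were brushed on from infected leaves. After 48 h at 24 °C, the percentage of germinated spores was converted to a germination rating.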

Botrytis cinerea = settings: BC, 48 hours
Procedure, shortened: as §1

Alternaria solani = settings: AS, 48 hours
Procedure, shortened: as §1

Measured: Spore Germination Rating

O=c1c(Cl)nsnc1Oc1ccc(Cl)cc1Cl [Compound 17, 3-chloro-5-(2,4-dichlorophenoxy)-4H--1,2,6-thiadiazin-4-one]
4 (80-100): Botrytis cinerea; 1.0 ppm
1 (10-40): Alternaria solani; 2.5 ppm
2 (40-60): Alternaria solani; 1.0 ppm
0 (0-10): Uromyces phaseoli; 1.0 ppm | Uromyces phaseoli; 2.5 ppm | Uromyces phaseoli; 10 ppm | Uromyces phaseoli; 40 ppm | Botrytis cinerea; 2.5 ppm | Botrytis cinerea; 10 ppm | Botrytis cinerea; 40 ppm | Alternaria solani; 10 ppm | Alternaria solani; 40 ppm

O=c1c(Cl)nsnc1Oc1cc(Cl)cc(Cl)c1 [Compound 20, 3-chloro-5-(3,5-dichlorophenoxy)-4H--1,2,6-thiadiazin-4-one]
2 (40-60): Alternaria solani; 1.0 ppm
0 (0-10): Uromyces phaseoli; 1.0 ppm | Uromyces phaseoli; 2.5 ppm | Uromyces phaseoli; 10 ppm | Uromyces phaseoli; 40 ppm | Botrytis cinerea; 2.5 ppm | Botrytis cinerea; 10 ppm | Botrytis cinerea; 40 ppm | Alternaria solani; 2.5 ppm | Alternaria solani; 10 ppm | Alternaria solani; 40 ppm
4 (80-100): Botrytis cinerea; 1.0 ppm

Nc1ccc(Oc2nsnc(Cl)c2=O)cc1 [Compound 26, 5-(4-aminophenoxy)-3-chloro-4H--1,2,6-thiadiazin-4-one]
0 (0-10): Botrytis cinerea; 1.0 ppm | Botrytis cinerea; 2.5 ppm | Botrytis cinerea; 10 ppm | Botrytis cinerea; 40 ppm | Alternaria solani; 10 ppm | Alternaria solani; 40 ppm
4 (80-100): Uromyces phaseoli; 10 ppm | Alternaria solani; 1.0 ppm
3 (60-80): Uromyces phaseoli; 2.5 ppm | Alternaria solani; 2.5 ppm
2 (40-60): Uromyces phaseoli; 1.0 ppm | Uromyces phaseoli; 40 ppm

O=c1c(Cl)nsnc1Oc1ccc([N+](=O)[O-])cc1 [Compound 9, 3-chloro-5-(4-nitrophenoxy)-4H--1,2,6-thiadiazin-4-one]
0 (0-10): Uromyces phaseoli; 1.0 ppm | Uromyces phaseoli; 2.5 ppm | Uromyces phaseoli; 10 ppm | Uromyces phaseoli; 40 ppm | Botrytis cinerea; 1.0 ppm | Botrytis cinerea; 2.5 ppm | Botrytis cinerea; 10 ppm | Botrytis cinerea; 40 ppm | Alternaria solani; 1.0 ppm | Alternaria solani; 2.5 ppm | Alternaria solani; 10 ppm | Alternaria solani; 40 ppm

Cc1cc(Oc2nsnc(Cl)c2=O)cc(C)c1Br [Compound 60, 3-[(4-bromo-3,5-dimethyl)-phenoxy]-5-chloro-4H--1,2,6-thiadiazin-4-one]
4 (80-100): Botrytis cinerea; 1.0 ppm | Alternaria solani; 1.0 ppm | Alternaria solani; 2.5 ppm | Alternaria solani; 10 ppm
0 (0-10): Uromyces phaseoli; 1.0 ppm | Uromyces phaseoli; 2.5 ppm | Uromyces phaseoli; 10 ppm | Uromyces phaseoli; 40 ppm
3 (60-80): Botrytis cinerea; 2.5 ppm | Botrytis cinerea; 10 ppm | Botrytis cinerea; 40 ppm | Alternaria solani; 40 ppm

O=c1c(Cl)nsnc1Oc1ccc(Br)cc1 [Compound 15, 3-chloro-5-(4-bromophenoxy)-4H--1,2,6-thiadiazin-4-one]
4 (80-100): Botrytis cinerea; 1.0 ppm | Alternaria solani; 1.0 ppm
0 (0-10): Uromyces phaseoli; 2.5 ppm | Uromyces phaseoli; 10 ppm | Uromyces phaseoli; 40 ppm | Botrytis cinerea; 10 ppm | Botrytis cinerea; 40 ppm | Alternaria solani; 10 ppm | Alternaria solani; 40 ppm
1 (10-40): Uromyces phaseoli; 1.0 ppm | Botrytis cinerea; 2.5 ppm | Alternaria solani; 2.5 ppm
